One assay deals with T1, PI3Kγ (p120γ) (Homo sapiens, UniProt P48736).
T1 construct: His tag (N); made in house; host or cells: Baculovirus-infected Sf9 insect cells
The assay can be described thus: PI3Kγ TR-FRET (HTRF) assay. Type of assay: biochemical. The following applies: 10 μM ATP. The source says:
The proteins are purified by one-step affinity chromatography using glutathione-agarose.
Background: In TR-FRET formats the signal depends on donor and acceptor labels being close together.

A further assay has as its system U87MG cells. Briefly: Cell proliferation assay Method B, U87MG. It counts as cell-based. Particulars: Homo sapiens, U-87 MG; Glioblastoma; Method B; 72 hours; read-out: antiproliferative activity IC50, U87MG. In short, it runs like this: (§1)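 Cells were seeded at 5,000 to 10,000 per well with a range of compound concentrations and exposed for 72 hours in 0.5% fetal bovine serum. Growth inhibition was assessed by ATP content using a firefly luciferase luminescence read-out after lysis.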

In a further assay the test system is BT-474 cells. The assay can be described thus: Cell proliferation assay Method A (ATPlite), BT-474. The following applies: Homo sapiens, 72 hours, read-out: antiproliferative activity IC50, BT-474. Type of assay: cell-based. In outline:
(§2)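 Cells seeded at 5,000–10,000 per well with graded compound concentrations and cultured 72 h in 0.5% fetal bovine serum. Growth inhibition read as cellular ATP content by firefly luciferase luminescence (ATPlite).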
On the technique in general: Cellular ATP, detected with luciferase, serves as a proxy for viable cell number.

Assay [1] has as its system HDACs (HeLa cell nuclear extracts). Briefly: HDAC enzymatic activity, Biomol Color de Lys system. Type of assay: biochemical. In outline:
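HeLa nuclear extract as HDAC source with Color de Lys substrate in 50 mM Tris/Cl pH 8.0, 137 mM NaCl, 2.7 mM KCl, 1 mM MgCl2. Serially diluted compounds reacted 1 h at 25 °C, then developer added; fluorescence (Ex 350–380/Em 440–460) fitted sigmoidally for IC50.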

For the next assay, the system named is RPMI-8226 cells. The assay can be described thus: Cell proliferation assay Method B, RPMI-8226. Type of assay: cell-based. The following applies: Homo sapiens, Multiple Myeloma, Method B, 72 hours, read-out: antiproliferative activity IC50, RPMI-8226. In short, it runs like this:
as §1

In the next assay the test system is P388 D1 cells. Briefly: Cell proliferation assay Method B, P388 D1. Type of assay: cell-based. Particulars: P388D1, Mouse Lymphoma, 72 hours, read-out: antiproliferative activity IC50, P388 D1. The method, then: (§3) Cancer cell lines were plated at 5,000 to 10,000 per well in 96-well flat bottomed plates with various concentration of compounds. The cells were incubated with compounds for 72 hours in the presence of 0.5% of fetal bovine serum. Growth inhibition was accessed by adenosine triphosphate (ATP) content assay using Promega CellTiter-Glo kit. Promega CellTiter-Glo kit is an ATP monitoring system based on firefly luciferase. Briefly, 16 μl of mammalian cell lysis and substrate solution was added to 84 μl of culture medium per well to lyse the cells and stabilize the ATP. The mixture was shaken and incubated for 30 minutes and subsequently the luminescence was measured.

Another assay concerns HCC1937 cells. The assay can be described thus: Cell proliferation assay Method B, HCC1937. Type of assay: cell-based. The following applies: Homo sapiens, Breast, Method B, 72 hours, read-out: antiproliferative activity IC50, HCC1937. In outline:
as §1

In another assay the test system is Sk-Mel-28 cells. The assay can be described thus: Cell proliferation assay Method A (ATPlite), Sk-Mel-28. The following applies: Homo sapiens, 72 hours, read-out: antiproliferative activity IC50, Sk-Mel-28. Type of assay: cell-based. In short, it runs like this:
as §2

The next assay concerns MDA-MB-468 cells. Briefly: Cell proliferation assay Method B, MDA-MB-468. It counts as cell-based. Particulars: Homo sapiens, Breast, Method B, 72 hours, read-out: antiproliferative activity IC50, MDA-MB-468. In outline: as §1
A further assay has as its target T2, PI3Kβ (p110β/p85α) (Homo sapiens, UniProt P42338).
T2 construct: N-terminal histidine-tagged recombinant full-length human p110β; His tag (N); made in house; host or cells: Baculovirus-infected Sf21 insect cells
Briefly: PI3Kβ TR-FRET (HTRF) assay. It counts as biochemical. Particulars: 10 μM ATP.

The subject of another assay is H1993 cells. Briefly: Cell proliferation assay Method A (ATPlite), H1993. It counts as cell-based. Particulars: Homo sapiens, NCI-H1993, 72 hours, read-out: antiproliferative activity IC50, H1993. In outline:
as §2

A further assay concerns OVCAR-5 cells. The assay can be described thus: Cell proliferation assay Method B, OVCAR-5. Type of assay: cell-based. The following applies: Homo sapiens, Ovarian, 72 hours, read-out: antiproliferative activity IC50, OVCAR-5. The method, then: as §3
The next assay deals with H292 cells. Briefly: Cell proliferation assay Method B, H292. Particulars: Homo sapiens, NCI-H292, NSCLC, 72 hours, read-out: antiproliferative activity IC50, H292. Type of assay: cell-based. The method, then: as §3
The next assay has as its system SWI-116 cells. Briefly: Cell proliferation assay Method B, SWI-116. Type of assay: cell-based. Particulars: Colon, 72 hours, read-out: antiproliferative activity IC50, SWI-116. As for the experimental part: as §3
Another assay concerns H460 cells. Briefly: Cell proliferation assay Method B, H460. Type of assay: cell-based. The following applies: Homo sapiens, NCI-H460, NSCLC, 72 hours, read-out: antiproliferative activity IC50, H460. The method, then:
as §3

Another assay has as its system WiDr cells. The assay can be described thus: Cell proliferation assay Method B, WiDr. Type of assay: cell-based. The following applies: Homo sapiens, Colon, 72 hours, read-out: antiproliferative activity IC50, WiDr. As for the experimental part:
as §3

A further assay has as its system SW403 cells. Briefly: Cell proliferation assay Method B, SW403. The following applies: Homo sapiens, SW-403, Colon, 72 hours, read-out: antiproliferative activity IC50, SW403. Type of assay: cell-based. The method, then: as §3
A further assay relates to MiaPaca1 cells. The assay can be described thus: Cell proliferation assay Method B, MiaPaca1. It counts as cell-based. Particulars: Pancreas, 72 hours, read-out: antiproliferative activity IC50, MiaPaca1. The method, then:
as §3

The next assay relates to PANC-1 cells. Briefly: Cell proliferation assay Method B, PANC-1. Type of assay: cell-based. Particulars: Homo sapiens, Pancreas, 72 hours, read-out: antiproliferative activity IC50, PANC-1. As for the experimental part:
as §3

A further assay relates to A549 cells. The assay can be described thus: Cell proliferation assay Method B, A549. Particulars: Homo sapiens, NSCLC, 72 hours, read-out: antiproliferative activity IC50, A549. It counts as cell-based. As for the experimental part:
as §3

The next assay has as its system SW620 cells. The assay can be described thus: Cell proliferation assay Method B, SW620. The following applies: Homo sapiens, SW-620, Colon, 72 hours, read-out: antiproliferative activity IC50, SW620. Type of assay: cell-based. As for the experimental part:
as §3

The subject of another assay is LN-Cap cells. The assay can be described thus: Cell proliferation assay Method B, LN-Cap. Type of assay: cell-based. Particulars: Homo sapiens, LNCaP, Prostate, 72 hours, read-out: antiproliferative activity IC50, LN-Cap. The method, then:
as §3

Two molecules from patent US8906909B2 (Curis, Inc., priority 2009, dated 2014) can be followed below.

In general, IC50 refers to the concentration needed to halve the response being measured.

T1 sequence (P48736 whole entry): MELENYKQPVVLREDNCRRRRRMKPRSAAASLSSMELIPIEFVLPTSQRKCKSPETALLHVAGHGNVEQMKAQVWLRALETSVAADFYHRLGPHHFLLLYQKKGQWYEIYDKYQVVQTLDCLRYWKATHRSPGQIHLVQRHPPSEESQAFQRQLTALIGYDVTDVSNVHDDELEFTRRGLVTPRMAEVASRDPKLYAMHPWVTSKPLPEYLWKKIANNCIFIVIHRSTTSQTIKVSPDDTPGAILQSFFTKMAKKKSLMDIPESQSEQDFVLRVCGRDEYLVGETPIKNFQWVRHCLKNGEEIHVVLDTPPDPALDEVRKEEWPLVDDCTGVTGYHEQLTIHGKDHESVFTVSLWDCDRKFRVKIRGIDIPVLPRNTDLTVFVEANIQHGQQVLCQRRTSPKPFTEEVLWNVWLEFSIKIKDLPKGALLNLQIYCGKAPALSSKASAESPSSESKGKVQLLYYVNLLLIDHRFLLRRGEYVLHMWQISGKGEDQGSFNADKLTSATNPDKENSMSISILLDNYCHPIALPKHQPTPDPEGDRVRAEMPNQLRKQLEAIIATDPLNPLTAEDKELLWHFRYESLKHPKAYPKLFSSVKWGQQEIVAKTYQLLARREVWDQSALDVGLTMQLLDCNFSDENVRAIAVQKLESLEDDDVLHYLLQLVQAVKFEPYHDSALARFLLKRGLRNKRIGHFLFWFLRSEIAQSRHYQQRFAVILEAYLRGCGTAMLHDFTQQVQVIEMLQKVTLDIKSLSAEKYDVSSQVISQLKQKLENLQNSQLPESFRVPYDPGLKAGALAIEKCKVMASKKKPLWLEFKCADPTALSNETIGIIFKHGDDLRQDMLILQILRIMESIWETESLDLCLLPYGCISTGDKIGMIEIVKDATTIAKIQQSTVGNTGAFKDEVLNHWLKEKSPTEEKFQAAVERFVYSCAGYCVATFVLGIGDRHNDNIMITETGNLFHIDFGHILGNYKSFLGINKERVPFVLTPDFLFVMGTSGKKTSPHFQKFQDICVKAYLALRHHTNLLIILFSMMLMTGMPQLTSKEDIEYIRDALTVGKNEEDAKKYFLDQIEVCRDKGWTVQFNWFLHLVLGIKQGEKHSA
T2 sequence (P42338 whole entry): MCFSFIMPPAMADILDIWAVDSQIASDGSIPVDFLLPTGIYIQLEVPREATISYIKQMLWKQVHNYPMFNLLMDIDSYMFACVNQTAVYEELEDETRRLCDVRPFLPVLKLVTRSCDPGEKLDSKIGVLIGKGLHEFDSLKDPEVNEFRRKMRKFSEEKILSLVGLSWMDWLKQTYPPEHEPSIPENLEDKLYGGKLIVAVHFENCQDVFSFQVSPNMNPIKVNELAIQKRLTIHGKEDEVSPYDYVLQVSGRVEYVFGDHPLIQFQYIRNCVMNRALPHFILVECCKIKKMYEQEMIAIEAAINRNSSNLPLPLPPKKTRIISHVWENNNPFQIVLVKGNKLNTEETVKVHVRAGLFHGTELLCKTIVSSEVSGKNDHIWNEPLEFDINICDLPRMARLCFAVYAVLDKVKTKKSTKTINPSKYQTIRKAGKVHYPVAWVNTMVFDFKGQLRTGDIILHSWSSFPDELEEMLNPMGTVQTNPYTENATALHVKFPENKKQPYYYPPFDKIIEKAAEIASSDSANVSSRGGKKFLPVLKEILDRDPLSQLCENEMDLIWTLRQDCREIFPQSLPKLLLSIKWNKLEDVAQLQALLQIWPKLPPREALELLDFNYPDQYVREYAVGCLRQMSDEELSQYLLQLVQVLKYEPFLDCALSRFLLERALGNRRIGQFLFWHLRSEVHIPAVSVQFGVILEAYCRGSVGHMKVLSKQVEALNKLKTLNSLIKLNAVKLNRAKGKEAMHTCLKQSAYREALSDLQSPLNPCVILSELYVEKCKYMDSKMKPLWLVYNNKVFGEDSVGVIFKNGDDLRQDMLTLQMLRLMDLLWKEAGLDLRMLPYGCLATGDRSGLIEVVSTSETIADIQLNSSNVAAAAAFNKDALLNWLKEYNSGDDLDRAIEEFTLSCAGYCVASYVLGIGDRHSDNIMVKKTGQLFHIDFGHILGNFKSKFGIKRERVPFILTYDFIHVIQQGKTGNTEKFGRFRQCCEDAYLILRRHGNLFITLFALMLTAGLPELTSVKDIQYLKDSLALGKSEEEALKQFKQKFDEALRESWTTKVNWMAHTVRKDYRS
T2 sequence (P27986 whole entry partner): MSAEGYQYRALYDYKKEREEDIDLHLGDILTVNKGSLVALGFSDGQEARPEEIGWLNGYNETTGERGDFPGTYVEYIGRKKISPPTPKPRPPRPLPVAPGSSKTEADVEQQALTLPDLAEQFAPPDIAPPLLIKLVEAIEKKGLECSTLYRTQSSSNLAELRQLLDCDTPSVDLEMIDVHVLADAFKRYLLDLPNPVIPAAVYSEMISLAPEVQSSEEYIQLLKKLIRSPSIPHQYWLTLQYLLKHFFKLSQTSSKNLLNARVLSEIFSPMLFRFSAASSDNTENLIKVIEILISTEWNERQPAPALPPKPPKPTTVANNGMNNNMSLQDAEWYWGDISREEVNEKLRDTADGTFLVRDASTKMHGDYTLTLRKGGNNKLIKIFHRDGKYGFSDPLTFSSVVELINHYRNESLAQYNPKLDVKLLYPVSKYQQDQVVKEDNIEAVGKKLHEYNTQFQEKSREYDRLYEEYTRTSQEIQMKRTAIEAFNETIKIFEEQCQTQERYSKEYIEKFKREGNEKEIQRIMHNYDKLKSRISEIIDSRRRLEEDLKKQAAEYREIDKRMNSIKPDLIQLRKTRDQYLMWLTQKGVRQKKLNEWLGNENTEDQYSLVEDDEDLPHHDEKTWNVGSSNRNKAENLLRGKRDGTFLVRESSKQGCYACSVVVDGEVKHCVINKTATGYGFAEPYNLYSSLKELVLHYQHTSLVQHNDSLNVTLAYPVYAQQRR
Protocol for PI3Kβ (p110β/p85α): Activity of PI3Kβ was measured using time-resolved fluorescence resonance energy transfer (TR-FRET) assay utilizing homogenous time resolved fluorescence (HTRF) technology. PI3Kβ, a complex of N-terminal histidine-tagged recombinant full-length human p110β and untagged recombinant full length human p85α were coexpressed in a Baculovirus infected Sf21 cell expression system. (GenBank Accession No. for p110β, NM—006219; for p85α, XM—043865) The proteins are purified by one-step affinity chromatography using glutathione-agarose. A competition assay was performed to measure the amount of PIP3 generated from PIP2 in the presence of purified recombinant PI3 Kbeta (p110β/p85α). PI3Kβ was incubated with 10 μM PIP2 substrate in the reaction buffer (20 mM HEPES, pH 7.5, 10 mM NaCl, 4 mM MgCl2, 2 mM DTT, 10 μM ATP and 1% DMSO) for 30 minutes at 30° C. The reaction product was then mixed with a PIP3 detector protein, europium-labeled antibody, biotin-labeled PIP3 probe and allophycocyanin-labeled Streptavidin. A sensor complex is formed to generate a stable TR-FRET signal in the reaction mixture. This signal intensity decrease as biotin-labeled probe binding to the PIP3 detector is displaced by PIP3 produced by enzymatic activity and the amount of unbound biotin-labeled PIP3 probe in the mixture increases. TR-FRET signal was determined using microplate reader with background subtraction.

`CN(Cc1cc2nc(-c3ccc(N)cc3)nc(N3CCOCC3)c2s1)c1ncc(C(=O)NO)cn1` [Compound 150, 2-(((2-(4-aminophenyl)-4-morpholinothieno[3,2-d]pyrimidin-6-yl)methyl)(methyl)amino)-N-hydroxypyrimidine-5-carboxamide]: the IC50 against PI3Kγ (p120γ) was 0.1 to 1 µM; with U87MG cells, < 0.01 µM; in the assay with BT-474 cells it was < 0.1 µM; in assay [1], < 0.1 µM; in the assay with RPMI-8226 cells, < 0.01 µM; in the assay with P388 D1 cells it was < 0.01 µM. For the same molecule, the half-inhibitory concentration (IC50) in the assay with HCC1937 cells is < 0.01 µM; in the assay with Sk-Mel-28 cells, < 0.1 µM; in the assay with MDA-MB-468 cells, 0.01 to 0.1 µM; against PI3Kβ (p110β/p85α), < 0.1 µM; with H1993 cells it was < 0.1 µM.
Take `CS(=O)(=O)N1CCN(Cc2cc3nc(-c4cccc5[nH]ncc45)nc(N4CCOCC4)c3s2)CC1` [GDC-0941, reference compound]: the IC50 with U87MG cells was 0.1 to 1 µM; in the assay on OVCAR-5 cells, 0.1 to 1 µM; in the assay on RPMI-8226 cells, > 10 µM; in the assay with H292 cells it was 1 to 10 µM; in the assay on SWI-116 cells, > 10 µM; with P388 D1 cells, 1 to 10 µM. Besides, the IC50 with HCC1937 cells is 0.1 to 1 µM; with H460 cells it was > 10 µM; with WiDr cells, > 10 µM; in the assay with SW403 cells, > 10 µM; in the assay on MiaPaca1 cells, > 10 µM; in the assay on PANC-1 cells, 1 to 10 µM. The values for the IC50 in the assay on A549 cells, in the assay with SW620 cells and in the assay with LN-Cap cells were 1 to 10 µM, > 10 µM and 0.1 to 1 µM, respectively.
